As usually defined, the EC50 is the concentration needed to bring the measured effect to its halfway point.

These results are taken from US11419856B2, “Pharmaceutical combinations for use in the treatment of neoplastic diseases” (Basilea Pharmaceutica International AG, priority 2017, dated 2022).

The test system of this experiment is Jurkat-GFP cells. The experiment in a line: Apoptosis assay (EGFP/FACS) in Jurkat-GFP cells. Particulars: data not shown; for EC50: Homo sapiens, read-out: EC50, induction of apoptosis; for maximal apoptosis induction: maximum of dose-response curve. Format: cell-based, human. As for the experimental part:
The following human cell line was used: MDA-MB-231 (ATCC: HTB-26). In addition the following enhanced green fluorescent protein (EGFP)-transfected human cell lines were used: NCI-H460 (ATCC: HTB-177) (H460GFP) and Jurkat (ATCC: TIB-152) (JurkatGFP). NCI-H460 and Jurkat cell lines were cultured in RPMI-1640 tissue culture medium containing 10% (v/v) fetal calf serum, 2 mM glutamine, non-essential amino acids and 50 μg/ml penicillin/streptomycin (Complete medium) (Sigma, Buchs, Switzerland). The MDA-MB-231 cell line was cultured in Dulbecco's Modified Eagle Medium (DMEM) (high glucose) tissue culture medium containing 10% (v/v) fetal calf serum, 1 mM sodium pyruvate and 50 μg/ml penicillin/streptomycin (i.e. Complete Medium) (Sigma, Buchs, Switzerland).
General growth conditions were 37° C. and 7.5% CO2. For the microtubule destabilization assay cell lines were cultured in 5% CO2.
The assays were performed in commercially available sterile 96-well U-bottom or 24-well flat-bottom tissue culture plates (Falcon). A defined number of test cells expressing enhanced green fluorescent protein (EGFP) (H460 cells: 600 μl of 30′000 cells/ml in 24-well flat-bottom plates, Jurkat cells: 600 μl of 400′000 cells/ml in […]) were plated either 24 hours before treatment in case of the adherent H460 cell line, or one hour prior to the start of the treatment for Jurkat cells. Between seeding and addition of compounds, the cells were incubated at 37° C. under 7.5% CO2. Subsequently, BAL27862 and eribulin (Halaven®, Ch.-B. 60363CRN1, Eisai) which were dissolved in Complete Medium were both added from stock solutions at 5× the final concentration in 200 μl to the wells, resulting in a final well-volume of 1 ml. The test plates were then incubated for the indicated time. For time course experiments with Jurkat cells, the 96-well plates were removed shortly at the indicated time from the incubator, shaken in order to suspend the cells and an aliquot of 200 μl cell suspension was then transferred to a 96-well U-bottom plate and measured immediately on a fluorescence-activated cell sorting (FACS)-Canto II with a high through-put sampler (HTS)-module. […]
The quantification of the relative amount of apoptotic cells within a cell population was determined according to the Reference of Strebel et al., Cytometry 2001, 43(2), Green Fluorescent Protein as Novel Tool to Measure Apoptosis and Necrosis). By monitoring the EGFP fluorescence activity excited at […] and measured at […] on a FACS-Cantoll™, it is possible to distinguish between proliferating cells, apoptotic cells and necrotic cells within the same cell population. […] As a readout the relative abundance of the cells belonging to M2 (apoptotic population) were expressed.

For the compound `N#CCCNc1nonc1-c1nc2ccccc2n1CC(=O)c1ccc(N)cc1` [BAL27862, 3-(4-{1-[2-(4-Amino-phenyl)-2-oxo-ethyl]-1H-benzoimidazol-2-yl}-furazan-3-ylamino)-propionitrile], the EC50 was 15 nM and the maximal apoptosis induction was 70-80%.
Turning to `C=C1C[C@@H]2CC[C@@]34C[C@H]5O[C@H]6[C@@H](O3)[C@H]3O[C@H](CC[C@@H]3O[C@H]6[C@H]5O4)CC(=O)C[C@@H]3[C@@H](OC)[C@@H](C[C@H](O)CN)O[C@H]3C[C@H]3O[C@@H](CC[C@@H]1O2)C[C@@H](C)C3=C.CS(=O)(=O)O` [Eribulin, (2R, 3R, 3aS, 7R, 8aS, 9S, 10aR, 11S, 12R, 13aR, 13bS, 15S, 18S, 21S, 24S, 26R, 28R, 29aS)-2-[(2S)-3-Amino-2-hydroxypropyl]-3-methoxy-26-methyl-20,27-dimethylidenehexacosahydro-11,15:18,21:24,28-triepoxy-7,9-ethano-12,15-methano-9H,15H-furo[3,2-i]furo[2′,3′:5,6]pyrano[4,3-b][1,4]dioxacyclopentacosin-5(4H)-one methanesulfonate (salt)], the EC50 was 0.8 nM and the maximal apoptosis induction entry is given as “about 70%”.
